The text below walks through data of patent US20160346202A1, “Composition for Vectorizing an Anti-Cancer Agent” (GUERBET, priority 2014, published 2016).

Data set [1] is described as follows: Visual stability (phase separation) of the emulsion. The conditions noted are these: comparative emulsions not in accordance with the invention. The data set is classed as physicochemical. Here is the method:
The emulsion according to the invention is advantageously stable. The term “stable emulsion” is intended to mean an emulsion having, under conventional temperature (20° C.) and atmospheric pressure (1 bar) conditions and within 24 hours following its preparation, a visual phase separation of less than 5% by volume relative to the total composition in emulsion form. […] Visual phase separation manifests itself when a solution no longer appears uniform to the eye, i.e. when the appearance of at least two phases is observed.

The nature of data set [2]: Plasma kinetics of the anti-cancer agent after intra-arterial (TACE) injection, rat with N1-S1 tumor. Format: in vivo, female Sprague-Dawley rats. The conditions noted are these: female, Sprague-Dawley, rat N1-S1 model. Here is the method:
The tumor induction method described in Garin et al. (Lab Anim. 2005 July; 39(3): 314-20) was used on female Sprague-Dawley rats (supplier Dépré or Janvier, France), anesthetized beforehand.
6×10^6 N1-S1 rat hepatocellular carcinoma tumor cells (deposited at ATCC under the reference CRLL-1604™, also called Novikoff cells) suspended in 100 μl of IMDM medium (Iscove's Modified Dulbecco's Medium) were administered under the hepatic capsule of the left lateral lobe of the female rats, by slow injection over the course of approximately 50 seconds. […]
The plasma doxorubicin assay was carried out in the heparinized rat plasma by high performance liquid chromatography (or HPLC), the chromatograph being equipped with a fluorescence detector. […] 10 μl of the extract were analyzed by reverse-phase HPLC on a Zorbax 300SB-C18 4.6×150 mm, 3.5 μm column (with a Zorbax 300SB-C18 4.6×12.5 mm, 5 μm precolumn) and fluorimetric detection (excitation wavelength 480 nm, emission wavelength 560 nm).
The analysis was carried out over the course of 30 minutes with a 5 mM ammonium acetate, pH 3.5/acetonitrile gradient. […] When the area of the HPLC peak was greater than the upper limit of quantification, 5 μl were injected instead of 10 μl in order to obtain an area of doxorubicin included in the range. […]

A short description of data set [3]: Plasma kinetics of doxorubicin after TACE, VX2 rabbits. The data set is classed as in vivo, New Zealand rabbits. The conditions noted are these: intra-arterial injection 300 μl, mean (±SD). Here is the method: The tumor induction method described by Hong et al. (Clin Cancer Res 2006; 12 (8): 2563-2567) was used on New Zealand rabbits (NZ; supplier Charles River, France), anesthetized beforehand.
Fragments of VX2 tumor tissues are implanted (a fragment of 25 mg/per liver of NZ rabbit) under the hepatic capsule of the left lateral lobe of the rabbits. These rabbits with a tumor in the left hepatic lobe will subsequently be referred to as “VX2 rabbits”.
19 days after having carried out the tumor induction method, the TACE is carried out. Thus, the products (volume: 300 μl) are injected into the pre-anesthetized animals, using a catheter guided by fluoroscopy (X-ray imaging) via the femoral artery and brought up to the artery feeding the hepatic tumor (injection only where selectivity has been achieved). The TACE is carried out in a dedicated room and under conditions close to clinical practice (interventional radiology).
Blood samples of 300 μl at times 0, 5, 15, 30 or 45 minutes after intra-arterial injection were taken after catheterization of the ear vein. 200 μl of plasma after centrifugation were then recovered and heparinized for assaying the anti-cancer agent. A study of the plasma kinetics of the anti-cancer agent was thus carried out.
The plasma doxorubicin assay was carried out in the heparinized plasma of VX2 rabbits under the same conditions as those described above. […]

Take Span® 83: in data set [1], the “Observations: phase separation / stability” value was “underwent phase separation immediately after they were prepared”. In the case of `COc1cccc2c1C(=O)c1c(O)c3c(c(O)c1C2=O)C[C@@](O)(C(=O)CO)C[C@@H]3O[C@H]1C[C@H](N)[C@H](O)[C@H](C)O1` [Control doxorubicin alone, doxorubicin], the concentration at 45 min in data set [2] (45 min after intra-arterial injection, read-out: Plasma doxorubicin concentration at 45 min) was 112 ng/mL. Moreover, the concentration at 5 min worked out at 2450 ng/mL in data set [2] (intra-arterial injection 100 μl, 0.5 mg anti-cancer agent, average) and 563 ± 282 ng/mL in data set [3] (New Zealand, rabbit, plasma, read-out: Plasma concentration of the anti-cancer agent 5 minutes after injection). For the same molecule, the “Plasma concentration of the anti-cancer agent 5 minutes after injection” value in data set [3] (listed as Control doxorubicin alone given IA) was 563 ± 282 ng/mL. With Span® 20, in data set [1], the “Observations: phase separation / stability” value is listed as “underwent phase separation immediately after they were prepared”.

For Span® 85, the “Observations: phase separation / stability” value in data set [1] is on record as “underwent phase separation immediately after they were prepared”.
